In publication PMC6473556, “Targetable Mechanical Properties by Switching between Self‐Sorting and Co‐assembly with In Situ Formed Tripodal Ketoenamine Supramolecular Hydrogels” (Chemnanomat, 2018):

Columns and labels:
Type in all cases: physicochemical
[1] = Critical gel concentration, inverted vial method; settings: 0.5 ml water
Procedure: 3.3 Setting gel using the ex situ prepared compound (gels R1 to R8 inclusively):
This procedure describes the method used in a typical setting of the hydrogel at 2 wt% using the previously prepared synthesised compound.
The gel ligand (0.1 g) was suspended in water, to this suspension sodium hydroxide was added (0.05 g, 1.25 mmol). Sonication and gentle heating was used to ensure the ligand had completely dissolved giving a solution with a pH of 9 – 10. To this solution glucono delta-lactone (GdL) (0.08 g, 0.45 mmol) was added and the solution was shaken until the GdL had […]
3.4 Setting gel R9 using the ex situ prepared compound:
This procedure describes the method used in a typical setting of the hydrogel R9 at 2 wt% using the previously prepared synthesised compound R9.
The synthesised compound R9 (0.1 g, 0.21 mmol) was suspended in water (5 ml), to this suspension sodium hydroxide was added (0.05 g, 1.25 mmol). Sonication and gentle heating was used to ensure the ligand had completely dissolved giving a solution with a pH of 9 – 10.
To this solution conc. Hydrochloric acid (0.4 ml) was rapidly added instantly producing a […]
3.5 Critical gel concentration (CGC):
Critical gel concentration was determined using the inverted vial method in 2 ml sample vials using 0.5 ml of water. This method can often give lower CGC values than are determined using a rheometer due to the low volume of solution and the high surface tension within the vials.

[2] = Rheometry of the gels (time, frequency and stress sweeps); settings: gel at 40 mM gelator concentration, standard deviation in brackets; for Yield stress: rounded to nearest 10; for G′ / G′′: rounded to nearest 100
Procedure: Another observation is the difference in transparency between the gels (Figure 1). Gels R2 and R6 are noticeably more transparent than the other gels. This transparency is a result of gels R2 and R6 having narrower fibres and therefore scattering less light (Figure S59). […] The responses of the nine presented gels to mechanical stimulus were determined using rheometry (Table 1). Although differences in mechanical properties are apparent when comparing one gel to another the difference between the same gel prepared ex situ and in situ is negligible (see ESI). Once a constant value for G′ had been recording during the time sweep experiments, the gelatinous nature of the materials was confirmed using frequency sweep rheometry.
For all gels the G′ and G“ values remained constant over a frequency range of 0.1–100 Hz, with the value of G′ several times the value recorded for G” (Figure 3). To examine the gels’ non‐linear rheological behaviour stress sweep experiments were conducted. The defining point of the experiment is the yield stress, below which G′ remains essentially constant, but above which the gel begins to flow (see ESI).

[3] = Gelation on lowering the pH with glucono-delta-lactone; settings: in situ reaction at high pH after addition of GdL

Row | CGC (critical gel concentration) [1] [Wt%] | Yield stress [2] | G′ [2] | G′′ [2] | Gelation [3] | Compound
1 | 0.3 | 140(10) μNm | 9000(200) Pa | 2300(100) Pa | – | O=C1C(=CNc2ccc(C(=O)O)cc2)C(=O)C(=CNc2ccc(C(=O)O)cc2)C(=O)C1=CNc1ccc(C(=O)O)cc1 [R1]
2 | 0.2 | 80(20) μNm | 12700(100) Pa | 3300(200) Pa | – | O=C1C(=CNc2ccc(Cl)c(C(=O)O)c2)C(=O)C(=CNc2ccc(Cl)c(C(=O)O)c2)C(=O)C1=CNc1ccc(Cl)c(C(=O)O)c1 [R2]
3 | 0.5 | 140(20) μNm | 10200(300) Pa | 2100(100) Pa | – | COc1cc(NC=C2C(=O)C(=CNc3ccc(C(=O)O)c(OC)c3)C(=O)C(=CNc3ccc(C(=O)O)c(OC)c3)C2=O)ccc1C(=O)O [R3]
4 | 0.4 | 40(10) μNm | 9300(200) Pa | 2100(200) Pa | – | O=C1C(=CNc2ccc(C(=O)O)cc2O)C(=O)C(=CNc2ccc(C(=O)O)cc2O)C(=O)C1=CNc1ccc(C(=O)O)cc1O [R4]
5 | 0.4 | 80(20) μNm | 10800(200) Pa | 3100(400) Pa | – | O=C1C(=CNc2cc(C(=O)O)ccc2O)C(=O)C(=CNc2cc(C(=O)O)ccc2O)C(=O)C1=CNc1cc(C(=O)O)ccc1O [R5]
6 | 0.1 | 250(30) μNm | 15400(300) Pa | 2600(200) Pa | – | O=C1C(=CNc2cc(C(=O)O)cc(C(F)(F)F)c2)C(=O)C(=CNc2cc(C(=O)O)cc(C(F)(F)F)c2)C(=O)C1=CNc1cc(C(=O)O)cc(C(F)(F)F)c1 [R6]
7 | 0.5 | 90(30) μNm | 8800(200) Pa | 2100(300) Pa | – | COc1c(NC=C2C(=O)C(=CNc3cccc(C(=O)O)c3OC)C(=O)C(=CNc3cccc(C(=O)O)c3OC)C2=O)cccc1C(=O)O [R7]
8 | 0.5 | 70(20) μNm | 9600(100) Pa | 2500(200) Pa | – | Cc1cc(NC=C2C(=O)C(=CNc3ccc(C(=O)O)c(C)c3)C(=O)C(=CNc3ccc(C(=O)O)c(C)c3)C2=O)ccc1C(=O)O [R8]
9 | 0.9 | 20(40) μNm | 1200(100) Pa | 300(300) Pa | – | O=C1C(=CNc2ccc(O)cc2)C(=O)C(=CNc2ccc(O)cc2)C(=O)C1=CNc1ccc(O)cc1 [R9]
10 | – | – | – | – | no gelation | O=C(O)CCCCCNC=C1C(=O)C(=CNCCCCCC(=O)O)C(=O)C(=CNCCCCCC(=O)O)C1=O [R10]
